TGI data for 14 compounds are collected here from PubChem BioAssay (NCI).

Structures are written as SMILES.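 Dose response: 5 concentrations. Exposure: 48 h. Format: 96-well plates. Endpoint: linear interpolation; highest concentration if not reached. TGI denotes the concentration required for complete inhibition of growth.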

Test systems include A549 NSCLC; CCRF-CEM leukemia; HCT-15 colon; MDA-MB-435; NCI-H522 lung; SF-268 CNS; SF-295 CNS; SK-MEL-2 melanoma; SW-620 colon; T-47D breast.
Experiment in all cases: NCI-60 cell line screen, 48 h

For `O=C1N(c2ccccc2)N=C2c3ccncc3C3=NN(c4ccccc4)C(=O)C123` (centres undefined), the TGI in the experiment on A549 NSCLC, in the experiment with CCRF-CEM leukemia, with HCT-15 colon, with MDA-MB-435, in the experiment with NCI-H522 lung and with SF-268 CNS was greater than 100 µM in each case. The TGI in the experiment on SF-295 CNS, with SK-MEL-2 melanoma, with SW-620 colon and in the experiment with T-47D breast was greater than 100 µM each time.
For `Cc1cccc2c1CC1(Cc3c(C)cccc3C1=O)C2=O`, the TGI with A549 NSCLC, in the experiment with CCRF-CEM leukemia, in the experiment with HCT-15 colon, in the experiment on MDA-MB-435, with NCI-H522 lung and with SF-268 CNS was greater than 100 µM in each case. Also, the TGI in the experiment with SF-295 CNS, with SK-MEL-2 melanoma, in the experiment with SW-620 colon and in the experiment with T-47D breast was greater than 100 µM throughout.
With `ClC1(Cl)C2CCOC21n1cnc2ccccc21` (centres undefined), the TGI in the experiment on A549 NSCLC, with CCRF-CEM leukemia, in the experiment on HCT-15 colon, in the experiment with MDA-MB-435, with NCI-H522 lung and in the experiment with SF-268 CNS was greater than 100 µM throughout. Also, the TGI in the experiment with SF-295 CNS, in the experiment with SK-MEL-2 melanoma, with SW-620 colon and in the experiment with T-47D breast was greater than 100 µM each time.
As to `CCN(CC)C(=O)CCNC(C)Cc1c[nH]c2ccccc12` (centres undefined), the TGI in the experiment with A549 NSCLC, with CCRF-CEM leukemia, in the experiment with HCT-15 colon, with MDA-MB-435, in the experiment with NCI-H522 lung and with SF-268 CNS was greater than 100 µM in each case. Moreover, the TGI with SF-295 CNS, in the experiment on SK-MEL-2 melanoma, in the experiment on SW-620 colon and in the experiment on T-47D breast was greater than 100 µM throughout.
`CN1CCN(C(=S)N(C(=O)c2ccc(Cl)cc2)C2CCCCC2)CC1`: the TGI with A549 NSCLC, with CCRF-CEM leukemia, with HCT-15 colon, in the experiment on MDA-MB-435, in the experiment on NCI-H522 lung and in the experiment on SF-268 CNS was greater than 100 µM throughout. Also, the TGI in the experiment with SF-295 CNS, in the experiment with SK-MEL-2 melanoma, in the experiment on SW-620 colon and in the experiment on T-47D breast was greater than 100 µM throughout.
Take `CCOC(=O)C1=CN(Cc2ccccc2)C2ON=C(c3ccc(Cl)cc3)C2C1` (centres undefined): the TGI is greater than 59.6 µM in the experiment on A549 NSCLC; greater than 100 µM in the experiment with CCRF-CEM leukemia; greater than 47.2 µM in the experiment on HCT-15 colon; greater than 79.5 µM in the experiment on MDA-MB-435; greater than 49.6 µM in the experiment with NCI-H522 lung; greater than 66.3 µM with SF-268 CNS. Also, the TGI in the experiment with SF-295 CNS was greater than 67 µM; in the experiment on SK-MEL-2 melanoma, 38.6 µM; with SW-620 colon, greater than 65.7 µM; in the experiment on T-47D breast, 15.2 µM.
In the case of `C/C(=N\Nc1nc2ccccc2[nH]1)c1ccc2ccccc2n1`, the TGI in the experiment with A549 NSCLC is 10.2 µM; with CCRF-CEM leukemia, 3.87 µM; with HCT-15 colon, 35.2 µM; in the experiment on MDA-MB-435 it was 17 µM; in the experiment with NCI-H522 lung, 8.85 µM; with SF-268 CNS, 14.3 µM. Further, the TGI in the experiment on SF-295 CNS came to 8.29 µM; with SK-MEL-2 melanoma, 7.23 µM; in the experiment on SW-620 colon, 14.6 µM; with T-47D breast, 3.74 µM.
As for `N#C[C@H](c1nc2ccccc2[nH]1)c1nc2ccccc2nc1Cl`, the TGI in the experiment on A549 NSCLC is greater than 100 µM; in the experiment on CCRF-CEM leukemia it was 10.9 µM; with HCT-15 colon, greater than 39.9 µM; with MDA-MB-435 it was greater than 78 µM; in the experiment on NCI-H522 lung, 16.2 µM; with SF-295 CNS it was greater than 100 µM. Also, the TGI in the experiment with SK-MEL-2 melanoma was greater than 59.1 µM; in the experiment on SW-620 colon, 29.5 µM; in the experiment on T-47D breast, 12.9 µM.
`CNC(=S)c1nnsc1N`: the TGI in the experiment on A549 NSCLC, in the experiment with CCRF-CEM leukemia, in the experiment with HCT-15 colon, with MDA-MB-435, in the experiment on NCI-H522 lung and in the experiment with SF-268 CNS was greater than 100 µM throughout. In addition, the TGI in the experiment with SF-295 CNS, in the experiment with SK-MEL-2 melanoma, in the experiment with SW-620 colon and in the experiment on T-47D breast was greater than 100 µM each time.
Take `COc1ccc(/C=C2/C(=O)C(c3ccccc3)N(c3ccccc3)C2=O)cc1OC` (centres undefined): the TGI with A549 NSCLC, with CCRF-CEM leukemia, in the experiment on HCT-15 colon, with MDA-MB-435, with NCI-H522 lung and in the experiment with SF-268 CNS was greater than 10 µM in each case. Also, the TGI with SF-295 CNS, in the experiment on SK-MEL-2 melanoma, in the experiment on SW-620 colon and in the experiment on T-47D breast was greater than 10 µM in each case.
On to `COc1cc(CNC(=O)CCCCCCCCCCSC#N)ccc1O`, for which the TGI worked out at 42.1 µM in the experiment with A549 NSCLC; 62.9 µM in the experiment with CCRF-CEM leukemia; 23 µM with HCT-15 colon; 24.4 µM with MDA-MB-435; 27.8 µM with NCI-H522 lung; 37.4 µM with SF-295 CNS. Besides, the figures for the TGI in the experiment on SK-MEL-2 melanoma, in the experiment on SW-620 colon and in the experiment on T-47D breast were 28.8 µM, 36.4 µM and 48.1 µM, respectively.
Consider `Cc1cc(NS(=O)(=O)c2ccc(N=Nc3c(Nc4ccccc4)nn(-c4ccc(S(=O)(=O)Nc5ccncn5)cc4)c3C)cc2)no1`, for which the TGI with A549 NSCLC, in the experiment on CCRF-CEM leukemia, with HCT-15 colon, with MDA-MB-435, in the experiment on NCI-H522 lung and with SF-295 CNS was greater than 100 µM each time. In addition, the TGI in the experiment on SK-MEL-2 melanoma and in the experiment on T-47D breast was greater than 100 µM in each case.
On to `FC1(F)SC2CCCCCCCCCCC2C1(F)F` (centres undefined), for which the TGI in the experiment on A549 NSCLC is greater than 100 µM; in the experiment with CCRF-CEM leukemia, greater than 100 µM; in the experiment on HCT-15 colon, greater than 100 µM; with MDA-MB-435 it was greater than 100 µM; with NCI-H522 lung it was 52.7 µM; in the experiment with SF-268 CNS, greater than 100 µM. Further, the TGI was greater than 100 µM in the experiment with SF-295 CNS, 39.3 µM with SK-MEL-2 melanoma and greater than 100 µM in the experiment with T-47D breast.
For the compound `COc1ccc(C2=Nn3c(C)nnc3S/C2=C\c2ccc(-c3ccc([N+](=O)[O-])cc3)o2)cc1`, the TGI was 66.7 µM in the experiment on A549 NSCLC; greater than 100 µM in the experiment on CCRF-CEM leukemia; 27.7 µM in the experiment on HCT-15 colon; 17.9 µM in the experiment with MDA-MB-435; 23.8 µM in the experiment with NCI-H522 lung; 47.1 µM with SF-268 CNS. In addition, the TGI in the experiment on SF-295 CNS was greater than 100 µM; in the experiment on SK-MEL-2 melanoma, 40.8 µM; with T-47D breast it was greater than 100 µM.
